Active and inactive are the calls of the source.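 Rule for the calls: active = compounds giving half or more protection of infected cells from virus-caused growth loss, again on retest; inactive = the rest.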 Where a SMILES comes first, the peptide text is derived from it.
Test system: CEM cells HIV-1 protection, formazan growth assay
Test: NCI AIDS Antiviral Assay
Details: for IC50: measured here: growth of uninfected CEM cells
How it was run: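 Protection of CEM cells against HIV-1 was scored from cell growth (soluble formazan) across five concentrations, with parallel uninfected cells. Lack of protection may reflect toxicity.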

## O=C1c2ccccc2C2C1C(c1ccccc1)C1(Cc3ccccc3C1=O)C2c1ccccc1 (stereo not drawn)
  EC50: > 200 µM
  IC50: 38.9 µM

## COC(=S)SSC(=S)NCCN(CCNC(=S)SSC(=S)OC)C(=S)SSC(=S)OC
  EC50: > 257 µM
  IC50: 209 µM

## CC1=NN(C(=O)CC(=O)Nc2ccc(Cl)cc2)C(=O)C1N=Nc1ccc(S(=O)(=O)c2ccc(N=NC3C(=O)N(C(=O)CC(=O)Nc4ccc(Cl)cc4)N=C3C)cc2)cc1 (stereo not drawn)
  EC50: > 50.1 µM
  IC50: > 50.1 µM

## CC(=O)Nc1cc2cc(NS(=O)(=O)c3cc(C(F)(F)F)cc(C(F)(F)F)c3)ccc2oc1=O
  EC50: > 27.5 µM
  IC50: > 27.5 µM

## O=C(O)c1cc2ccccc2c(=O)s1
  EC50: > 331 µM
  IC50: > 331 µM

## CCC1=C2C(=O)c3ccccc3C2=C(C)S(=O)(=O)O1
  EC50: 257 µM
  IC50: 263 µM

## CCN1C(c2ccc(Cl)cc2)=NN2C(C)=CC(C)(C)N=C12
  EC50: > 85.1 µM
  IC50: 60.3 µM

## Cc1ccc2c(c1)C1(C)OC(C=CC1=O)O2 (stereo not drawn)
  EC50: > 3.16 µM
  IC50: 0.525 µM

## CC(C)CC(NC(=O)C(Cc1ccc(O)cc1)NC(=O)C(CO)NC(=O)C(C)NC(=O)C(CO)NC(=O)C(CCC(=O)O)NC(=O)C(NC(=O)C(N)CCC(=O)O)C(C)C)C(=O)NC(CCCN=C(N)N)C(=O)NC(CCCCN)C(=O)O (stereo not drawn) (H-EVESASYLRK-OH; configuration not given here)
  outcome: inactive

## COc1ccc(NC(=O)c2c(NC(=O)CN3CCOCC3)c(C#N)c3n2CCC3)cc1
  EC50: > 100 µM
  IC50: > 100 µM

## COc1c(CCl)cc(-c2cc(=O)c3ccccc3s2)cc1CCl
  EC50: > 200 µM
  IC50: > 200 µM

## CP(=O)(O)C(N)Cc1c[nH]c2ccccc12 (stereo not drawn)
  EC50: > 100 µM
  IC50: > 100 µM

## COC12OC3(C4OC41)C(C(=O)O[C@H]3CO[Si](C)(C)C(C)(C)C)C2S(=O)(=O)c1ccccc1 (stereo partly drawn)
  EC50: > 200 µM
  IC50: 129 µM

## CCOC(=O)c1nc2ccccc2nc1Oc1ccc(F)cc1
  EC50: > 200 µM
  IC50: > 200 µM

## S=c1sc2c(Cl)ncnc2n1-c1ccccc1
  EC50: > 67.6 µM
  IC50: 3.63 µM

## C=CCN=C1N=C(CC(=O)OCC)CS1
  outcome: inactive

## C=CCn1nnc2ccccc2c1=O
  EC50: > 692 µM
  IC50: > 692 µM

## CC(C)CCC[C@@H](C)[C@H]1CC[C@H]2[C@@H]3CC[C@H]4C[C@@H](CCC=C(c5cc(Cl)c(OCc6ccccc6C(=O)O)c(C(=O)O)c5)c5cc(Cl)c(OCc6ccccc6C(=O)O)c(C(=O)O)c5)CC[C@]4(C)[C@H]3CC[C@]12C
  EC50: 67.6 µM
  IC50: > 200 µM

## COc1ccc(C(=O)CCC(NC(C)=O)C(=O)O)cc1 (stereo not drawn)
  EC50: > 100 µM
  IC50: > 100 µM

## COc1ccc(C[C@@H]2CN(C(=O)c3ccccc3)[C@H](Cc3ccc(O)cc3)CN2C(=O)c2ccccc2)cc1Br
  EC50: > 200 µM
  IC50: 126 µM

## N#Cc1c(-c2ccc(Cl)cc2)c(-c2ccc(Cl)cc2)nn(CCOC(=O)CCC(=O)O)c1=O
  EC50: > 513 µM
  IC50: 0.468 µM

## O=C1CCCN(Cc2ccccc2)C(=O)N1
  EC50: > 1150 µM
  IC50: > 1150 µM

## COc1ccc(-c2c(C3=NCCCN3)nnn2-c2ccccc2)cc1
  EC50: > 759 µM
  IC50: 282 µM

## Oc1cc(O)c2c(-c3c(O)c(-c4ccc(O)c(O)c4)[o+]c4cc(O)cc(O)c34)c(O)c(-c3ccc(O)c(O)c3)[o+]c2c1
  outcome: inactive

## CC12CCCCC1=C(F)C(F)(F)S2 (stereo not drawn)
  EC50: > 200 µM
  IC50: 115 µM

## O=C(NC1C=Nc2ccccc2NC1=O)c1ccc(Cl)cc1 (stereo not drawn)
  EC50: > 200 µM
  IC50: > 200 µM

## Clc1ccc2c(Cl)nc(-c3ccccc3)nc2c1
  outcome: inactive

## O=C1C[C@H](c2ccccc2)C2(C(=O)c3ccccc3C2=O)[C@H](c2ccccc2)C1
  EC50: > 102 µM
  IC50: > 102 µM

## COc1cc(=O)oc2c3c(ccc12)OC(C)(C)[C@H](OC(=O)C12CCC(C)(C(=O)O1)C2(C)C)[C@@H]3OC(=O)C12CCC(C)(C(=O)O1)C2(C)C (stereo partly drawn)
  EC50: 0.257 µM
  IC50: 51.3 µM

## CC(NS(=O)(=O)c1ccc([N+](=O)[O-])cc1)C(=O)O (stereo not drawn)
  outcome: inactive

## CC(=N\N)/C(C)=N/N=C(C)/C(C)=N/N=C(C)/C(C)=N/N=C(C)/C(C)=N/N
  EC50: > 200 µM
  IC50: 15.8 µM

## C1=CC(N(c2ccccc2)C2C=CCCC2)CCC1 (stereo not drawn)
  outcome: inactive

## COC1=C(C)C(=O)c2ncccc2C1=O
  outcome: inactive

## COC(=O)c1cc(=O)c2c(ccc3oc(=O)ccc32)[nH]1
  EC50: > 200 µM
  IC50: 170 µM

## O=C1C2=C(c3ccccc31)C(c1ccccc1Cl)N1C(=O)CSC1=N2 (stereo not drawn)
  EC50: > 37.2 µM
  IC50: > 37.2 µM

## COC(=O)c1ccccc1/C=C1\Cc2ccc3c(c2C1=O)CCC3
  EC50: > 200 µM
  IC50: > 200 µM

## CC(=O)NCCCCN(CCCNC(C)=O)C(=O)OCc1ccccc1
  EC50: > 200 µM
  IC50: > 200 µM

## COc1ccc(C(=O)C(C(=O)C(=O)NCCCNC(=O)C(=O)C(C(=O)c2ccc(OC)cc2)c2ccc(OC)cc2)c2ccc(OC)cc2)cc1 (stereo not drawn)
  outcome: inactive

## Cc1ccc(N=Nc2c(C)nn(-c3ccccc3)c2-c2ccccc2)c(Br)c1
  outcome: inactive

## NC(N)=NCc1ccc2c(c1)OCO2
  EC50: > 200 µM
  IC50: 166 µM

## CCCNC(=O)C1C(=O)C(=O)N(CCC)C1=O (stereo not drawn)
  outcome: inactive

## S=C(Nc1ccc(Br)cn1)NC12CC3CC(CC(C3)C1)C2
  EC50: > 200 µM
  IC50: 69.2 µM

## C=C1[C@H](OC(=O)C(C)C)[C@]23CC4(O)[C@@H]5[C@@]6(C)CCC[C@]57C([C@@H]2C[C@@]1(O)[C@H](O)[C@@H]73)N4C6
  EC50: 61.7 µM
  IC50: > 200 µM

## O=C(CCSSCCC(=O)ON1C(=O)CCC1=O)ON1C(=O)CCC1=O
  EC50: > 200 µM
  IC50: > 200 µM

From PubChem BioAssay AID179 (DTP/NCI, 2004)
